# Assay results reported in ChEMBL document CHEMBL1153384, “Synthesis, antimalarial activity, and preclinical pharmacology of a novel series of 4'-fluoro and 4'-chloro analogues of amodiaquine. Identification of a suitable "back-up" compound for N-tert-butyl isoquine” (J Med Chem, 2009).
# Columns and labels:
# Cytochrome P450 3A4 = Cytochrome P450 3A4 (Homo sapiens, UniProt P08684); assay: Inhibition of human CYP3A4 using DEF substrate
# Kidney [1] = assay: Biodistribution in cannulated Wistar rat kidney assessed as [3H]labeled drug level at 54 umol/kg, iv after 5 hrs; type: ADME, organism-based; settings: in vivo
# Plasmodium falciparum [2] = assay: Antimalarial activity against chloroquine-resistant Plasmodium falciparum V1/S; type: functional, organism-based; settings: V1S
# Lung = assay: Biodistribution in Wistar rat lung assessed as [3H]labeled drug level at 54 umol/kg, iv after 24 hrs; type: ADME, organism-based; settings: in vivo
# [3] = Distribution coefficient, log D at pH 7.4; settings: octanol/water
# [4] = Oral bioavailability in rat; type: ADME, organism-based; settings: in vivo
# Plasmodium falciparum [5] = assay: Antimalarial activity against […] Plasmodium falciparum Dd2; type: functional, organism-based
# Kidney [6] = assay: Biodistribution in Wistar rat kidney assessed as [3H]labeled drug level at 54 umol/kg, iv after 24 hrs; type: ADME, organism-based; settings: in vivo
# Cytochrome P450 2C8 = molecular target: T1, Cytochrome P450 2C8 (Homo sapiens, UniProt P10632); assay: Inhibition of human CYP2C8; type: ADME
# T1 sequence (P10632 whole entry): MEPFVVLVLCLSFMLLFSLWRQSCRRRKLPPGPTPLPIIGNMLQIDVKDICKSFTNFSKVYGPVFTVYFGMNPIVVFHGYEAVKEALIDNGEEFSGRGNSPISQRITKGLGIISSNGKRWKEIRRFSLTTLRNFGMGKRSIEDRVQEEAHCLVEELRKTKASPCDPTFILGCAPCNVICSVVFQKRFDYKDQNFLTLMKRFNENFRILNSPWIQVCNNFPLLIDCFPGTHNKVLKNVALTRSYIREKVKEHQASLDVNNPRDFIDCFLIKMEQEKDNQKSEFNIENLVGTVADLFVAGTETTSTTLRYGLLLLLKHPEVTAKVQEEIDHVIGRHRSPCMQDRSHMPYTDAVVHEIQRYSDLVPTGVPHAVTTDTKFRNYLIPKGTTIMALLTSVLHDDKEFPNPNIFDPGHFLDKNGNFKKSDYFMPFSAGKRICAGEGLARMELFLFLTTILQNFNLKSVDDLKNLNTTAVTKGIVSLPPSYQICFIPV
# Zone of skin = assay: Biodistribution in cannulated Wistar rat skin assessed as [3H]labeled drug level at 54 umol/kg, iv after 5 hrs; type: ADME, organism-based; settings: in vivo
# Plasmodium falciparum [7] = assay: Antimalarial activity against […] Plasmodium falciparum PH3; type: functional, organism-based
# Cytochrome P450 1A2 = molecular target: T2, Cytochrome P450 1A2 (Homo sapiens, UniProt P05177); assay: Inhibition of human CYP1A2; type: ADME
# T2 sequence (P05177 whole entry): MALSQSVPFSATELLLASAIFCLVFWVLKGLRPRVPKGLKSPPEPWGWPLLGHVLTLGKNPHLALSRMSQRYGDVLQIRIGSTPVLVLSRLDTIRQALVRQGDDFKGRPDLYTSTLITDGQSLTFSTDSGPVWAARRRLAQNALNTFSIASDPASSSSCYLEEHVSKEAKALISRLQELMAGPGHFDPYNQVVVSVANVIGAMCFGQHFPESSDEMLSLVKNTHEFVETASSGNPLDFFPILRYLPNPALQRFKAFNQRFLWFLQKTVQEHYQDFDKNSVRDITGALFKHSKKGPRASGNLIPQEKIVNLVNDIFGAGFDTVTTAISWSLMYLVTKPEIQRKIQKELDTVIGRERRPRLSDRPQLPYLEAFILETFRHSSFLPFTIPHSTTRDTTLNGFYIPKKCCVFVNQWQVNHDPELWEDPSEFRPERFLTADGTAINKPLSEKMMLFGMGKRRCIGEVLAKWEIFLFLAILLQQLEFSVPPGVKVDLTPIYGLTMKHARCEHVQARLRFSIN
# [8] = Drug metabolism in cannulated Wistar rat assessed as biliary excretion of [3H]labeled drug level at 54 umol/kg, iv after 5 hrs; type: ADME, organism-based, Bile; settings: in vivo
# [9] = Biodistribution in cannulated Wistar rat bile assessed as [3H]labeled drug level at 54 umol/kg, iv after 5 hrs; type: ADME, organism-based; settings: in vivo
# Rattus norvegicus [10] = assay: Biodistribution in Wistar rat assessed as remaining [3H]labeled drug level at 54 umol/kg, iv after 5 hrs; type: ADME, organism-based; settings: in vivo
# [11] = Biodistribution in cannulated Wistar rat urine assessed as [3H]labeled drug level at 54 umol/kg, iv after 5 hrs; type: ADME, organism-based; settings: in vivo
# Rattus norvegicus [12] = assay: Biodistribution in Wistar rat assessed as remaining [3H]labeled drug level at 54 umol/kg, iv after 24 hrs; type: ADME, organism-based; settings: in vivo
# Cytochrome P450 2C9 = Cytochrome P450 2C9 (Homo sapiens, UniProt P11712); assay: Inhibition of human CYP2C9; type: ADME
# Chain of Cytochrome P450 2C9 (P11712 whole entry): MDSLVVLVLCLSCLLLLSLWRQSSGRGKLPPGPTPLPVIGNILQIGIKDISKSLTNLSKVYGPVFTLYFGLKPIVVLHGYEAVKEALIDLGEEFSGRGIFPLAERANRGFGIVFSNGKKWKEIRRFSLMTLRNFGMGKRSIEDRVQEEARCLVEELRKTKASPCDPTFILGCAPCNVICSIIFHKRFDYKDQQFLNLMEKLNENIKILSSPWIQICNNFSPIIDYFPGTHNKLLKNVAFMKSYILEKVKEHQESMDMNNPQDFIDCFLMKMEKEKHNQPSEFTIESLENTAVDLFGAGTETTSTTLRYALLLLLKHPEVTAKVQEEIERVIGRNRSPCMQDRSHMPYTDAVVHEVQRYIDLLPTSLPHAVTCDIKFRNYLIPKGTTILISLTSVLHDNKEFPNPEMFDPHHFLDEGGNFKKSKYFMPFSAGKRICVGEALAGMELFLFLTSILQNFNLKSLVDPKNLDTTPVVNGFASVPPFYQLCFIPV
# Cytochrome P450 2C19 = Cytochrome P450 2C19 (Homo sapiens, UniProt P33261); assay: Inhibition of human CYP2C19; type: ADME
# Chain of Cytochrome P450 2C19 (P33261 whole entry): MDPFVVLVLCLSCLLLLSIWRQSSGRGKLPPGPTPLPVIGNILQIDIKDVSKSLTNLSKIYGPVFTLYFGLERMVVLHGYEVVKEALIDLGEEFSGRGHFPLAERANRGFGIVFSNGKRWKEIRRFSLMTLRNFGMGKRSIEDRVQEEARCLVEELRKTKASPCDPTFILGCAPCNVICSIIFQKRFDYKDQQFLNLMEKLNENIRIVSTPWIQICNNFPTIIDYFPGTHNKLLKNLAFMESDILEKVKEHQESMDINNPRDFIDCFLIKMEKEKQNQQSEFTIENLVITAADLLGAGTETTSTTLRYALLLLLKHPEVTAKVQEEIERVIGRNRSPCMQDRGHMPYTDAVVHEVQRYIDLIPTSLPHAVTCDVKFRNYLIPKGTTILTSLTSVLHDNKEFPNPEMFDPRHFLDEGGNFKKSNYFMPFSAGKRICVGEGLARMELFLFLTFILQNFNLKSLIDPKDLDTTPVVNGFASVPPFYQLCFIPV
# [13] = Drug metabolism in cannulated Wistar rat assessed as urinary excretion of [3H]labeled drug level at 54 umol/kg, iv after 5 hrs; type: ADME, organism-based, Urine; settings: in vivo
# Rattus norvegicus [14] = assay: Biodistribution in Wistar rat assessed as remaining [3H]labeled drug level at 54 umol/kg, iv after 48 hrs; type: ADME, organism-based; settings: in vivo
# Rattus norvegicus [15] = assay: Metabolic stability in Wistar rat assessed as 2-[5-(7-Chloro-quinolin-4-ylamino)-2-fluoro-benzylamino]-2-methyl-propionic acids level at 54 umol/kg, iv administered as [3H]labeled drug after 5 hrs; type: ADME, organism-based; settings: in vivo
# Mus musculus = assay: Toxicity in po dosed mouse assessed as maximal nonlethal dose administered as single dose; type: organism-based; settings: in vivo
# Rattus norvegicus [16] = assay: Drug elimination in Wistar rat assessed as [3H]labeled drug level at 54 umol/kg, iv after 24 hrs; type: ADME, organism-based; settings: in vivo
# Liver = assay: Biodistribution in Wistar rat liver assessed as [3H]labeled drug level at 54 umol/kg, iv after 24 hrs; type: ADME, organism-based; settings: in vivo
# Plasmodium falciparum [17] = assay: Antimalarial activity against chloroquine-resistant Plasmodium falciparum K1
# [18] = Clearance in iv dosed mouse; type: ADME, organism-based; settings: in vivo
# [19] = Toxicity against Wistar rat hepatocytes after 6 hrs by trypan blue exclusion method; type: cell-based, Hepatocyte; settings: read-out: TC50
# [20] = Toxicity in po dosed mouse assessed as drug level causing no observed adverse effects administered as once daily for 4 days; type: organism-based; settings: in vivo, read-out: Activity
# Plasmodium falciparum [21] = assay: Antimalarial activity against chloroquine-sensitive Plasmodium falciparum HB3; type: functional, organism-based
# Cytochrome P450 2D6 = Cytochrome P450 2D6 (Homo sapiens, UniProt P10635); assay: Inhibition of human CYP2D6; type: ADME
# Chain of Cytochrome P450 2D6 (P10635 whole entry): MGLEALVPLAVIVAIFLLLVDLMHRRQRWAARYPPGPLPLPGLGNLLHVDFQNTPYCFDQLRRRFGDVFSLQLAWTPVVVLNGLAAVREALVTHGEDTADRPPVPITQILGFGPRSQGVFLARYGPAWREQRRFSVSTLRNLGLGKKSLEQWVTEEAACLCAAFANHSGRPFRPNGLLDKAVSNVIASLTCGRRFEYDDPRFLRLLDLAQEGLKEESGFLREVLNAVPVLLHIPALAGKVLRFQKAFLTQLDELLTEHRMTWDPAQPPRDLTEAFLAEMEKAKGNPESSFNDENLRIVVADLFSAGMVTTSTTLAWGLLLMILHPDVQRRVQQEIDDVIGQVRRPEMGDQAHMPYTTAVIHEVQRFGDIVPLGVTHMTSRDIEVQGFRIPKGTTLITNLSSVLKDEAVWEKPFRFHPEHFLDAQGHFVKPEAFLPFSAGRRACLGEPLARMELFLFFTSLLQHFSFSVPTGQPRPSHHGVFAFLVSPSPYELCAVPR
# [22] = Elimination half life in mouse at 10 mg/kg, po administered as single dose; type: ADME, organism-based; parameters: dose 10 mg/kg, route oral; settings: in vivo, read-out: beta t1/2 (converted)
# Heme [23] = assay: Binding affinity to heme assessed as binding constant for stepwise binding of 2 equivalent of drug to 1 molecule of heme in presence of 40% DMSO by UV-visible spectroscopy
# Rattus norvegicus [24] = assay: Metabolic stability in Wistar rat assessed as [3-(tert-Butylamino-methyl)-4-fluoro-phenyl]-(7-chloro-1-oxy-quinolin-4-yl)-amine level at 54 umol/kg, iv administered as [3H]labeled drug after 5 hrs; type: ADME, organism-based; settings: in vivo
# Plasmodium yoelii = assay: Antimalarial activity as reduced parasitaemia against Plasmodium yoelii 17X infected CD1 mice (Mus musculus) perorally dosed daily for 4 days; type: functional; settings: po, 96 h
# Heme [25] = assay: Binding affinity to heme assessed as binding constant for stepwise binding of 2 molecules of heme to 1 equivalent of drug in presence of 40% DMSO by UV-visible spectroscopy
# Chain of Cytochrome P450 3A4 (P08684 whole entry): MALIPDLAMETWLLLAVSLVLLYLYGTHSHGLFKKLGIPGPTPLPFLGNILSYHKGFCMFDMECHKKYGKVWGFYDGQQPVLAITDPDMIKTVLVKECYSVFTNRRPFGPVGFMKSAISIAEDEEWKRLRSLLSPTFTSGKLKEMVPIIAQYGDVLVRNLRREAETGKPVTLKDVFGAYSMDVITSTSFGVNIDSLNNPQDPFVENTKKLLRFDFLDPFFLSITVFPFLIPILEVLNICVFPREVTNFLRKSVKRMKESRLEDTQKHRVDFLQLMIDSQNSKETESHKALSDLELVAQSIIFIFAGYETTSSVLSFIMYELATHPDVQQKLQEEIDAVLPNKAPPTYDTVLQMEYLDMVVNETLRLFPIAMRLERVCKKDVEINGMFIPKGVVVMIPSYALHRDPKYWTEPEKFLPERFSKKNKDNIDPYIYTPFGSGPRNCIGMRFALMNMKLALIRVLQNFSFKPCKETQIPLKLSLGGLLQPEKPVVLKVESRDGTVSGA
structure (smiles),measurement,setting,value
CC(C)(C)NCc1cc(Nc2ccnc3cc(Cl)ccc23)ccc1F,IC50,Cytochrome P450 3A4,> 100000 nM
same,Drug uptake,Kidney [1],3.97 %ID
same,IC50,Plasmodium falciparum [2],26.1 nM
same,Drug uptake,Lung,1.17 %ID
same,logD,[3],2.4
same,bioavailability,[4],100%
same,IC50,Plasmodium falciparum [5],22.4 nM
same,Drug uptake,Kidney [6],1.48 %ID
same,IC50,Cytochrome P450 2C8,9800 nM
same,Drug uptake,Zone of skin,12.44 %ID
same,IC50,Plasmodium falciparum [7],25.8 nM
same,IC50,Cytochrome P450 1A2,8800 nM
same,Activity,[8],9.16%
same,Activity,[9],9.16 %ID
same,Activity,Rattus norvegicus [10],38.54%
same,Activity,[11],8.06 %ID
same,Activity,Rattus norvegicus [12],14.76%
same,IC50,Cytochrome P450 2C9,52000 nM
same,IC50,Cytochrome P450 2C19,64000 nM
same,Activity,[13],8.06%
same,Activity,Rattus norvegicus [14],72.79%
same,Activity,Rattus norvegicus [15],14.22%
same,Activity,Mus musculus,610 mg/kg
same,Activity,Rattus norvegicus [16],51.36%
same,Drug uptake,Liver,6.57 %ID
same,IC50,Plasmodium falciparum [17],22 nM
same,clearance,[18],40.4 mL/min/kg
same,CC50 at 6 h,[19],385000 nM
same,NOAEL at 96 h,[20],100 mg/kg
same,IC50,Plasmodium falciparum [21],14.6 nM
same,IC50,Cytochrome P450 2D6,300 nM
same,half-life,[22],7 h
same,log Ks,Heme [23],5.45
same,Activity,Rattus norvegicus [24],3.55%
same,ED50,Plasmodium yoelii,7.7 mg/kg
same,ED90,Plasmodium yoelii,10.6 mg/kg
same,log Ks,Heme [25],5.68
